Test results reported in US20240335431A1, “1-H-PYRROLO[2,3-c]PYRIDINE COMPOUNDS” (Acerta Pharma B.V., priority 2023, published 2024).

Legend:
[1] = Caco-2 cell monolayers intrinsic permeation assay in the presence of efflux inhibitors; assay type: in vitro ADME; details: Caco-2, with efflux inhibitors
Description: Caco-2 cells were obtained from American Type Culture Collection (ATCC). HEPES, penicillin, streptomycin, bovine serum albumin (BSA) were obtained from Beijing Xinjingke Biotechnology Co, Ltd. Fetal bovine serum, Hank's balanced salt solution (HBSS) and non-essential amino acids (NEAA) were purchased from Gibco. Dulbecco's Modified Eagle's Medium (DMEM) was purchased from Corning and MES from Sigma. HTS Transwell-24 permeable supports were purchased from Corning. Zosuquidar and Ko-143 were obtained from MedChemExpress and Benzbromarone from Sigma.
The Caco-2 cell culture medium consisted of DMEM with high glucose and L-glutamine supplemented with 10% FBS, 0.1 mg/mL streptomycin, 100 units of penicillin, 0.6 mg/mL kanamycin sulfate and 1×NEAA. […] culture medium was added to each Transwell insert with 800 mL added to each well of the reservoir. After incubation at 37° C. in 5% CO2 for 1 hour, the plates were ready for seeding.
The cells were cultivated in T-75 flasks at 37° C., 5% CO2, 95% relative humidity. At 80 to 90% confluence, cells were treated with trypsin/EDTA treatment until they became detached. The trypsin/EDTA was inactivated by adding excess serum containing medium. The cell suspension was centrifuged at 120 g for 10 minutes followed by resuspension of the cell pellet in seeding medium at a cell density of 7.92×10^5 cells/mL.
[…] of the resulting cell suspension was added to each well of the Transwell plate and incubated for 14 to 18 days, with medium replaced every other day. After incubation for 14 to 18 days, the cells should have reached confluence and should be tested for electrical resistance using a Millicel Epithelial Volt-Ohm measuring system (Millipore).
The cell monolayers were washed twice with pre-warmed HBSS and incubated at 37° C. for 30 minutes under gentle shaking (480 rpm).
The compound under test was presented as a 10 mM DMSO stock solution. 2 mL of the 10 mM stock was added to 8 mL DMSO to produce a 2 mM stock. 2 mL was added to 398 mL of HBSS containing 10 mM Zosuquidar, 30 mM Benzbromarone and 2 mM KO-143 to make a […] solution.
210 mL of the test compound solution was added to the apical compartment of the Transwell plate, with a 10 mL sample taken to act as the time 0 sample. The wells of the receiver (basolateral) compartment were filled with 800 mL HBSS (containing the efflux inhibitors). The plates were incubated at 37° C. with shaking at 480 rpm for 120 minutes with sampling at 45 and 120 minutes.
At each sampling time (0, 45 and 120 minutes) 10 mL was removed from the apical compartment and add to 90 mL (HBSS containing the efflux inhibitors). 100 mL was removed from each basolateral compartment. 3 volumes of cold acetonitrile containing internal standard was added to each sample and vortex mixed for 10 minutes at 100 rpm. Samples were then centrifuged at 400 rpm for 20 minutes. 50 mL of the supernatant was taken for LC/MS/MS analysis to determine compound concentration.
The apparent permeability (Papp), in units of centimetre per second, were calculated for Caco-2 drug transport using the following equation: […]
Where CR is the concentration of compound in the receiver side at the respective time point, CD is the concentration of compound in the donor side at the respective timepoint. Area is the surface area of the membrane and time is 4500 seconds (75×60 seconds).

[2] = Human hepatocyte intrinsic clearance assay; assay type: in vitro ADME; details: human hepatocytes
Protocol: Human hepatocytes (LiverPool™ 10-Donor Human hepatocytes (Mixed Gender, PEG-free, Product No. S01205, 5 million cells per vial) were obtained from BioreclamationIVT. DMSO was sourced from Solarbio S&T Co Ltd. Leibovitz's L-15 Medium, Williams' Medium E, GlutaMAX™-1 (100×), HEPES, DPBS (10×) and Human Recombinant Insulin Solution were purchased from Gibco. Isotonic Percoll Solution was purchased from GE Healthcare. Fetal Bovine Serum (FBS) was purchased from Corning.
10 mM dexamethasone stock solution was prepared by dissolving 3.9 mg dexamethasone in 1 mL of DMSO. An Isotonic Percoll Solution was prepared by dilution of Percoll with DPBS (10×). 15 mL of Isotonic Percoll Solution (90% Percoll/10% DPBS) was added to 31.25 mL William's E medium containing 500 mL of GlutaMAX™-1 (100×), 750 mL of 1M HEPES, 2.5 mL of 5% FBS, 50 mL of 4 mg/mL Human Recombinant Insulin Solution and 5 mL of the 10 mM dexamethasone stock.
2 mL of 10 mM DMSO stock solutions of test compound were added to 198 mL acetonitrile to produce 100 mmol/L concentration.
The human hepatocyte vial was thawed at 37° C. in a waterbath. Once thawed, contents were poured into a 50 mL conical tube and centrifuged at 100 g for 10 minutes. The thawing medium was poured out and 4 mL L-15 medium was added. The tube was gently shaken to resuspend the hepatocytes and cells were counted with an appropriate cell counter. 247.5 mL of the hepatocyte suspension was transferred into each well of the plate and pre-warmed at 600 rpm and 50° C. to enable the temperature to rise to 37° C.
2.5 mL of the […] test compound solution was added to initiate the reaction (final concentration […]) and incubated at 37° C. with shaking at 900 rpm. At 0.5, 5, 15, 30, 45, 60, 80, 100 and 120 minutes, 20 mL was taken into a quenching solution of acetonitrile containing internal standards. The mix was vortexed at 800 rpm for 2 minutes followed by centrifugation for 20 minutes at 4000 rpm at 4° C. 40 mL of supernatant was transferred into a 96 well analysis plate containing 160 mL of water in each well. The analysis plate was shaken at 100 rpm for 2 minutes prior to analysis by LC-MS/MS.
Peak areas were determined from extracted ion chromatograms. Percent parent remaining was calculated from peak area of test compound. The slope value, k, was determined by linear regression of the natural logarithm of percent parent remaining versus incubation time.
The in vitro intrinsic clearance (in vitro CLint in mL/min/10^6 cells) was determined from the slope value using the following equation: […]
where V is the incubation volume (0.25 mL) and N is the number of hepatocytes per well (0.25×10^6 cells).

SMILES	Papp A→B [1]	HH CLint [2]
COCCN(C)CCC[C@H](C(C)C)N1CCC(C(=O)c2cn(-c3ccc(F)cc3C(=O)N(C(C)C)C(C)C)c3cnccc23)CC1 (racemic) [Example 23, rac-(R)-5-Fluoro-N,N-diisopropyl-2-(3-(1-(6-((2-methoxyethyl)(methyl)amino)-2-methylhexan-3-yl)piperidine-4-carbonyl)-1H-pyrrolo[2,3-c]pyridin-1-yl)benzamide]	1.5 ×10⁻⁶ cm/s	3.8 μl/min/1E6
CC(C)N(C(=O)c1cc(F)ccc1-n1cc(C(=O)C2CCN(C(=O)[C@H]3NC[C@@H]4CC[C@@H]43)CC2)c2ccncc21)C(C)C (relative stereo) [Example 25, rel-2-(3-(1-((1R,2R,5S)-3-Azabicyclo[3.2.0]heptane-2-carbonyl)piperidine-4-carbonyl)-1H-pyrrolo[2,3-c]pyridin-1-yl)-5-fluoro-N,N-diisopropylbenzamide]	3 ×10⁻⁶ cm/s	3.6 μl/min/1E6
CCN(C(=O)c1cc(F)ccc1-n1c(C)c(C(=O)C2CCN(C(=O)[C@@H]3CCC4(CC4)N3)CC2)c2ccncc21)C(C)C (single isomer, unassigned) [Example 49-2]	6.3 ×10⁻⁶ cm/s	6.0 μl/min/1E6
CCN(C(=O)c1cc(F)ccc1-n1c(C)c(C(=O)C2CCN(C(=O)[C@@H]3CCC(C)(C)N3)CC2)c2ccncc21)C(C)C (single isomer, unassigned) [Example 50-2]	1.2 ×10⁻⁶ cm/s	<1.0 μl/min/1E6
Cc1c(C(=O)C2CCN(C(=O)[C@H]3NC[C@@H]4C[C@@H]43)CC2)c2ccncc2n1-c1ccc(F)cc1C(=O)N(CC(F)(F)F)C(C)C (single isomer, unassigned) [Example 51-2]		1.9 μl/min/1E6
CCN(C(=O)c1cc(F)ccc1-n1c(C)c(C(=O)[C@@H]2CCN(C(=O)[C@@H]3CCC4(CC4)N3)[C@@H](C)C2)c2ccncc21)C(C)C (single isomer, unassigned) [Example 52-1, N-Ethyl-5-fluoro-N-isopropyl-2-(2-methyl-3-((2R*,4S*)-2-methyl-1-((S)-4-azaspiro[2.4]heptane-5-carbonyl)piperidine-4-carbonyl)-1H-pyrrolo[2,3-c]pyridin-1-yl)benzamide]	10.9 ×10⁻⁶ cm/s	4.1 μl/min/1E6
CCN(C(=O)c1cc(F)ccc1-n1c(C)c(C(=O)[C@@H]2CCN(C(=O)[C@@H]3CCC4(CC4)N3)[C@@H](C)C2)c2ccncc21)C(C)C (single isomer, unassigned) [Example 52-2, N-Ethyl-5-fluoro-N-isopropyl-2-(2-methyl-3-((2R*,4S*)-2-methyl-1-((S)-4-azaspiro[2.4]heptane-5-carbonyl)piperidine-4-carbonyl)-1H-pyrrolo[2,3-c]pyridin-1-yl)benzamide]		3.5 μl/min/1E6
Cc1c(C(=O)[C@@H]2CCN(C(=O)[C@H]3NC[C@@H]4C[C@@H]43)[C@@H](C)C2)c2ccncc2n1-c1ccc(F)cc1C(=O)N(CC(F)(F)F)C(C)C (single isomer, unassigned) [Example 53-3, 2-(3-((2R*,4S*)-1-((1S,2S,5R)-3-Azabicyclo[3.1.0]hexane-2-carbonyl)-2-methylpiperidine-4-carbonyl)-2-methyl-1H-pyrrolo[2,3-c]pyridin-1-yl)-5-fluoro-N-isopropyl-N-(2,2,2-trifluoroethyl)benzamide]	3.6 ×10⁻⁶ cm/s	3.3 μl/min/1E6
Cc1c(C(=O)C2CCN(C(=O)[C@H]3NC[C@@H]4C[C@@H]43)CC2)c2ccncc2n1-c1ccc(F)cc1C(=O)N(C(C)C)C(C)C (single isomer, unassigned) [Example 55-1]	3.7 ×10⁻⁶ cm/s	4.4 μl/min/1E6
Cc1c(C(=O)C2CCN(C(=O)[C@H]3NC[C@@H]4C[C@@H]43)CC2)c2ccncc2n1-c1ccc(F)cc1C(=O)N(C(C)C)C(C)C (single isomer, unassigned) [Example 55-2]		4.2 μl/min/1E6
Cc1c(C(=O)C2CCN(C(=O)[C@@H]3CCC(C)(C)N3)CC2)c2ccncc2n1-c1ccc(F)cc1C(=O)N(C(C)C)C(C)C (single isomer, unassigned) [Example 56-1]	2.8 ×10⁻⁶ cm/s	6.9 μl/min/1E6
Cc1c(C(=O)C2CCN(C(=O)[C@H]3NC[C@@H]4C[C@@H]43)CC2)c2ccncc2n1-c1ccc(F)cc1C(=O)N(C(C)C)[C@H](C)C(F)(F)F (single isomer, unassigned) [Example 57-1]		3.2 μl/min/1E6
Cc1c(C(=O)C2CCN(C(=O)[C@@H]3CCC4(CC4)N3)CC2)c2ccncc2n1-c1ccc(F)cc1C(=O)N1[C@H](C)COC[C@H]1C (single isomer, unassigned) [Example 58-2]	5.4 ×10⁻⁶ cm/s	1.9 μl/min/1E6
CC(C)N(C(=O)c1cc(F)ccc1-n1cc(C(=O)[C@H]2CCN(C[C@H]3CC[C@H](NS(C)(=O)=O)CC3)C2)c2ccncc21)C(C)C [Example 1, 5-Fluoro-N,N-diisopropyl-2-(3-((S)-1-(((1r,4S)-4-(methylsulfonamido)-cyclohexyl)methyl)pyrrolidine-3-carbonyl)-1H-pyrrolo[2,3-c]pyridin-1-yl)benzamide]	2.7 ×10⁻⁶ cm/s	2.6 μl/min/1E6
CC(C)N(C(=O)c1cc(F)ccc1-n1cc(C(=O)[C@H]2CCN(C(=O)[C@H]3N[C@@H]4CC[C@H]3C4)C2)c2ccncc21)C(C)C [Example 2, 2-(3-((S)-1-((1R,3S,4S)-2-Azabicyclo[2.2.1]heptane-3-carbonyl)pyrrolidine-3-carbonyl)-1H-pyrrolo[2,3-c]pyridin-1-yl)-5-fluoro-N,N-diisopropylbenzamide]	0.4 ×10⁻⁶ cm/s	<1.0 μl/min/1E6
